In experiment [1] the test system is PLCPs (cathepsin B- and L-like activity, Fr. No 35–36 of barley leaf extract). The experiment can be described thus: Inhibition of Z-FR-AMC cleavage, pooled ion-exchange fractions Nos. 35–36. In kind it is biochemical, barley (Hordeum vulgare L.). The following applies: for IC50: substrate Z-FR-AMC 25 µM, Fr. No 35–36, senescing leaves six weeks after anthesis, pH 5.5, read-out: Effect/IC50. How it is done:
(§1) Soluble proteins from barley leaves were extracted by homogenizing 10 g of leaf powder in 200 mL of ice-cold 50 mM Tris-HCl buffer (pH 7.4). Homogenates were filtered through one layer of Miracloth (Calbiochem, San Diego, CA, USA), centrifuged at 20,000× g for 20 min at 4 °C, and the supernatants were then filtered through a 0.45 μm filter (Avantor, Radnor, PA, USA). PLCPs were separated using anion-exchange chromatography on a DEAE-Sepharose CL-6B column (volume 6 mL) equilibrated with 0.05 M Tris-HCl buffer (pH 7.4). The column was washed with equilibration buffer, and bound material was eluted with a NaCl gradient (0.0–1.0 M). Collected fractions (1 mL each) were kept in an ice bath and used for measurements of peptidase activity and protein content. Fractions with active cysteine proteases were pooled. To reduce the NaCl concentration and exchange the buffer to 0.1 M Na-citrate (pH 5.5), three sequential filtration steps using 10 kDa ultrafiltration 15 mL units (Merck Millipore Ltd., Carrigtwohill, County Cork, Ireland) were utilized, and the samples were incubated with gentle shaking with 10 µM DCG-04 in the presence of 2 mM DTT for 3 h at 37 °C. […] The intensity of DCG-04-labeled barley cysteine proteases was determined in our previous experiments using streptavidin-horseradish peroxidase. After the incubation, proteins were rapidly precipitated using 80% acetone under inclusion of 100 mM NaCl.
(§2) Fluorogenic substrates Z-FR-AMC to determine cathepsin B- and L-like activity, and Z-RR-AMC to determine cathepsin B-like activity, were used. These substrates show fluorescence when AMC is released as a consequence of the hydrolysis of the Arg-AMC bond. The emitted fluorescence was detected with a SpectraMax M2 microplate reader (Molecular Devices, San Jose, CA, USA) with λex = 360 nm and λem = 460 nm. Before use, the substrates were dissolved in DMSO at 10 mM and stored at −20 °C. The measurements were made in 96-well black microplates (PerkinElmer Inc., Waltham, MA, USA), and each well contained a 100 μL final volume of 0.1 M Na-citrate buffer (pH 5.5) with DTT (2 mM), an aliquot of extract or chromatographic fraction, and fluorogenic substrate (25 μM). The reaction was initiated by the addition of the substrate. The final concentration of DMSO in microplate wells was 1% in all assays. The assays were conducted at room temperature, and relative fluorescence readings were recorded over a period of 10 min.
(§3) For the inhibition assays, an inhibitor (1 µL of stock solution of E-64 or bestatin in DMSO, or stock solution of 1,10-phenanthroline in ethanol) at different concentrations was added to the reaction mixture. […]

The target in experiment [2] is R-AMC cleaving aminopeptidase activity (Fr. No 26–27 of barley leaf extract). Briefly: Inhibition of R-AMC cleaving aminopeptidase activity, pooled ion-exchange fractions Nos. 26–27. Type of experiment: biochemical, barley (Hordeum vulgare L.). The following applies: for IC50: substrate R-AMC 25 µM, Fr. No 26–27, senescing leaves six weeks after anthesis, pH 5.5, read-out: Effect/IC50; for Inhibition of R-AMC cleaving aminopeptidase activity (in words): substrate R-AMC, earlier eluting fractions.

Experiment [3] has as its system PLCPs (cathepsin B-like activity, Fr. No 35–36 of barley leaf extract). The experiment can be described thus: Inhibition of Z-RR-AMC cleavage, pooled ion-exchange fractions Nos. 35–36. Type of experiment: biochemical, barley (Hordeum vulgare L.). The following applies: for IC50: substrate Z-RR-AMC 25 µM, Fr. No 35–36, senescing leaves six weeks after anthesis, pH 5.5, read-out: Effect/IC50. How it is done: as §1, §2, §3

Experiment [4] has as its system PLCPs (pooled fractions with active cysteine proteases). The experiment can be described thus: DCG-04 labeling of pooled active fractions, remaining PLCP activity checked with Z-FR-AMC and Z-RR-AMC. In kind it is biochemical, barley (Hordeum vulgare L.). To be noted: 10 µM DCG-04, 2 mM DTT, 3 h at 37 °C, 0.1 M Na-citrate pH 5.5. On the procedure:
as §1, with “After the incubation, proteins were rapidly precipitated using 80% acetone under inclusion of 100 mM NaCl.” left out

The subject of a further experiment is PLCPs from maize leaves. More on the design: method as in PMID 31114592. To be noted: ion-exchange chromatography; cited from earlier work.
For experiment [5], the system named is aleurain (a cysteine aminopeptidase). On the set-up: method as in PMID 12354950. The following applies: cited from earlier work.

The text below walks through data of publication PMC12567500, “Activity-Based Profiling of Papain-like Cysteine Proteases During Late-Stage Leaf Senescence in Barley” (Plants, 2025).

In the case of `c1cnc2c(c1)ccc1cccnc12` [1,10-Phenanthroline, 1,10-phenanthroline], the IC50 in experiment [1] was over 5000 µM; in experiment [2], 68.5 ± 12.2 µM; in experiment [3] it was over 5000 µM. In addition, in experiment [2], the “Inhibition of R-AMC cleaving aminopeptidase activity (in words)” value is reported as “inhibited”.

In the case of `CCOC(=O)[C@H]1O[C@@H]1C(=O)N[C@@H](CC(C)C)C(=O)N[C@@H](Cc1ccc(O)cc1)C(=O)NCCCCCC(=O)N[C@@H](CCCCNC(=O)CCCC[C@@H]1SC[C@@H]2NC(=O)N[C@@H]21)C(N)=O` [DCG-04], the “Remaining PLCP activity after incubation with probe” value in experiment [4] is listed as “No remaining PLCP activity”.

For `CC(C)C[C@H](NC(=O)[C@H]1O[C@@H]1C(=O)O)C(=O)NCCCCN=C(N)N` (relative stereo) [E-64, trans-epoxysuccinyl-L-leucylamido-(4-guanidino)butane], the “Sensitivity of the single Z-FR-AMC cleavage activity peak to inhibition (in words)” value in the experiment on PLCPs from maize leaves is “sensitive”. Further, the “Inhibition of aleurain activity (in words)” value in experiment [5] was “inhibited”. Besides, the figures for the IC50 in experiment [1], in experiment [2] and in experiment [3] were 0.0153 ± 0.0041 µM, over 25 µM and 0.0091 ± 0.0022 µM, respectively. Also, the “Inhibition of the activity of the peak fractions (in words)” value is on record as “completely inhibited” in experiment [1] (substrate Z-FR-AMC, peak fractions of DEAE-Sepharose) and “completely inhibited” in experiment [3] (substrate Z-RR-AMC, peak fractions of DEAE-Sepharose).

Regarding `CC(C)C[C@H](NC(=O)[C@@H](O)[C@H](N)Cc1ccccc1)C(=O)O` [Bestatin, bestatin], the results for the IC50 in experiment [1], in experiment [2] and in experiment [3] were over 1000 µM, 247 ± 38 µM and over 1000 µM, respectively. In experiment [2], the “Inhibition of R-AMC cleaving aminopeptidase activity (in words)” value is listed as “inhibited”.
